In paper PMC8877094, “Antiparasitic Ovalicin Derivatives from Pseudallescheria boydii, a Mutualistic Fungus of French Guiana Termites” (Molecules, 2022) one finds IC50 data, which are given here for 6 molecules.

What all share (format): cell-based
For test [1], the system named is Human umbilical vein endothelial cells (HUVECs). As to the kind of experiment: Cytotoxic assay on HUVECs (CellTiter-Blue). To be noted: HUVEC, read-out: HUVECs (IC50 µM). As to the method:
Human umbilical vein endothelial cells (HUVECs) were obtained from Clonetics (Lonza; Walkersville, MD, USA) and cultured according to the supplier’s instructions. Briefly, HUVECs from three to six passages were subcultured to confluence onto 0.2% gelatin-coated tissue culture flasks in endothelial cell growth medium (EGM2) containing growth factors and 2% FCS. All cell lines were maintained at 37 °C in a humidified atmosphere containing 5% CO2. Cell viability was assessed using Promega (Promega France, Charbonnière-les-Bains, France) CellTiter-BlueTM reagent according to the manufacturer’s instructions. Cells were seeded in 96-well plates (5 × 10^3 cells per well) containing […] growth medium. After 24 h of culture, the cells were supplemented with […] of test compound dissolved in DMSO (<0.1% in each preparation). After incubation for 72 h, […] resazurin was added for 2 h before recording fluorescence (λex = 560 nm, λem = 590 nm) using a Victor microtiter plate fluorimeter (PerkinElmer France, Villebon-sur-Yvette, France). IC50 values correspond to the concentration of test compound that elicited a 50% decrease in fluorescence for drug-treated cells relative to untreated cells. Experiments were performed in triplicate.
For orientation: Resazurin is reduced to fluorescent resorufin, in cell work by metabolically active cells.

Test [2] relates to Plasmodium falciparum FcB1/Colombia strain. As to the kind of experiment: In vitro growth inhibition of chloroquine-resistant P. falciparum ([3H]-hypoxanthine incorporation). The note with it: FCB1, Erythrocyte, 48 h. As to the method: The FcB1/Colombian strain of Plasmodium falciparum was maintained in vitro in human erythrocytes in an RPMI 1640 reaction mixture supplemented with 8% (v/v) heat-inactivated human serum at 37 °C under an atmosphere of 3% CO2, 6% O2, and 91% N2. The chloroquine-resistant strain FcB1/Colombia of Plasmodium falciparum was obtained from the National Museum Natural History collection, Paris, France (n°MNHN-CEU-224-PfFCB1). Parasites were maintained in vitro on human A+ erythrocytes in RPMI 1640 medium supplemented by 8% (v/v) heat-inactivated human serum at 37 °C under an atmosphere of 3% CO2, 6% O2, and 91% N2. Human red blood cells and serum were provided by the Etablissement Français du Sang, Ile de France (EFS, Paris, France) under the C-CPSL-UNT approval n°13/EFS/126. In vitro drug susceptibility assays were measured by [^3H]-hypoxanthine incorporation as described previously. Drug solutions were prepared in DMSO at a 10 mM concentration. Compounds were serially diluted 2-fold with 100 μL culture medium in 96-well plates. Asynchronous parasite cultures (100 μL, 1% parasitemia and 1% final hematocrit) were then added to each well and incubated for 24 h at 37 °C prior to the addition of 0.5 μCi of [^3H]-hypoxanthine (GE Healthcare, Tremblay-en-France, France, 1 to 5 Ci·mmol/mL) per well. After a further incubation of 24 h, plates were frozen and thawed. Cell lysates were then collected onto fiberglass filters and counted in a liquid scintillation spectrometer. The growth inhibition for each drug concentration was determined by comparison of the radioactivity incorporated in the treated culture with that in the control culture maintained on the same plate. The concentration causing 50% growth inhibition (IC50) was obtained from the drug concentration–response curve, and the results are expressed as the mean values ± standard deviations determined from several independent experiments.

Test [3] deals with Trypanosoma brucei brucei strain 93 bloodstream forms. As to the kind of experiment: In vitro inhibition of T. brucei brucei growth (AlamarBlue/resazurin). The note with it: bloodstream forms strain 93, 72 h incubation + 4 h resazurin, mean ± SD of three independent experiments. As for the experimental part: Bloodstream forms of Trypanosoma brucei brucei strain 93 were cultured in HMI9 medium supplemented with 10% FCS at 37 °C under an atmosphere of 5% CO2. In all experiments, log-phage cell cultures were harvested by centrifugation at 3000× g and immediately used. Drug assays were based on the conversion of a redox-sensitive dye (resazurin) to a fluorescent product by viable cells and were performed according to the manufacturer recommendations (AlamarBlue® Assay, Invitrogen Corporation, Carlsbad, CA, USA). Drug stock solutions were prepared in pure DMSO. […] After a 72 h incubation, resazurin solution was added to each well at with a final concentration of 45 μM. Fluorescence was measured at 530 nm excitation and 590 nm emission wavelengths after a further 4 h incubation. The percentage of inhibition of the parasite growth rate was calculated by comparing the fluorescence of parasites maintained in the presence of drug with that in the absence of drug. DMSO was used as control. […] IC50s were determined from the dose–response curves with drug concentrations ranging from 100 μM to 50 nM. The IC50 value is the mean ± the standard deviation of three independent experiments.

The mark [4] stands for this setting: cell viability, 72 h incubation, CellTiter-Blue, triplicate.
Setting [5] is: chloroquine-resistant FcB1/Colombia strain, human erythrocytes, 24 h + 24 h with [3H]-hypoxanthine, mean ± SD, read-out: P. falciparum (IC50 µM).

Each structure is given as a SMILES string. Like-named read-outs stand apart in the source and are kept apart here.

For the molecule `CO[C@@H]1C(=O)CC[C@]2(CO2)[C@@]1(O)[C@@]1(C)O[C@@H]1CC=C(C)C` [Compound 1, Ovalicin], the IC50 is 13 ± 2 µM in test [1] (setting [4]) and < 20.6 µM in test [2] (read-out: P. falciparum (IC50 µM), chloroquine-resistant FcB1/Colombia strain, human erythrocytes, 24 h + 24 h with [3H]-hypoxanthine, mean ± SD).

Take `CCCCC/C=C\C/C=C\CCCCCCCC(=O)OC[C@@]1(O)CCC(=O)[C@@H](OC)[C@]1(O)[C@@]1(C)O[C@@H]1CC=C(C)C` [Compound 2, Ovalicin linoleate]: the IC50 in test [3] (72 h) was < 1.1 µM; in test [1] (setting [4]), 37 ± 3 µM; in test [2] (setting [5]) it was < 20.6 µM.

As to `CCCCCCCC/C=C\CCCCCCCC(=O)OC[C@@]1(O)CCC(=O)[C@@H](OC)[C@]1(O)[C@@]1(C)O[C@@H]1CC=C(C)C` [Compound 3, Ovalicin oleate], the values for the IC50 in test [3] (72 h), in test [1] (setting [4]) and in test [2] (setting [5]) were 4.8 ± 2.7 µM, 45 ± 2 µM and > 50 µM, respectively.

With `CCCCCCCCCCCCCCCCCC(=O)OC[C@@]1(O)CCC(=O)[C@@H](OC)[C@]1(O)[C@@]1(C)O[C@@H]1CC=C(C)C` [Compound 4], the figures for the IC50 in test [3] (72 h), in test [1] (setting [4]) and in test [2] (setting [5]) were 4.1 ± 2.1 µM, 70 ± 1 µM and < 20.6 µM, respectively.

With `CO[C@@H]1[C@H](OC(=O)/C=C/C=C/C=C/C=C/C(=O)O)CC[C@]2(CO2)[C@H]1[C@@]1(C)O[C@@H]1CC=C(C)C` [Fumagillin, reference compound], in test [1] (72 h), the IC50 amounted to 0.006 ± 0.002 µM.

Turning to `N=C(N)c1ccc(OCCCCCOc2ccc(C(=N)N)cc2)cc1` [Pentamidine, reference compound], in test [3], the IC50 is 0.011 ± 0.0017 µM.
